Like-named read-outs stand apart in the source and are kept apart here.
Columns and labels:
[1] = test system: Enterococcus faecium; assay: Agar incorporation test, bacteriostatic activity; assay type: cell-based; set-up: key: ⊕⊕: ungehemmtes Wachstum; ⊕: vermindertes Wachstum; -: absolute Hemmung (a. H.); conditions: 24 h bei 36 °C
Source text: (§1) Methodik: Percarbamid und Dodecylthiouroniumchlorid werden unter städigem Durchmischen bis zur vollständigen Homogenisierung erwärmt. Die Prüfung der Kombination im Vergleich zu den entsprechenden Monowirkstoffen auf bakteriostatische Wirksamkeit erfolgte im Agarinkorporationstest. Die zu untersuchenden Substanzen wurden in Wasser standardisierter Härte gelöst. Die Konzentration der Testsubstanzen im Nähragar wurde in einer geometrischen Reihe auf der Basis 2 abgestuft. Zum Beimpfen der Testplatten wurden die im Beispiel 1 genannten Testkeime 6 h in Caseinpepton-Sojamehlpepton-Lösung bebrütet und so in eine logarithmische Wachstumsphase gebracht. Danach wurden die Agarplatten sternförmig sektorenweise mit jeweils einer ? abgestrichenen Öse beimpft. Der Sektor von Proteus mirabilis wurde durch Gräben abgetrennt, um das Schwärmen zu verhindern. Nach 24 h Bebrütung bei 36 °C erfolgte die Bewertung des Bakterienwachstums unter Vergleich mit substanzfreien Kontrollplatten nach folgendem Schema: ++++ ungehemmtes Wachstum +++ geringe Wachstumshemmung (maximal ¾ des Wachstums der Kontrollen) ++ mäßige Wachstumshemmung (maximal ½ des Wachstums der Kontrollen) + starke Wachstumshemmung (maximal ¼ des Wachstums der Kontrollen) Das sog. ? verminderte Wachstum" (v. W.) umfaßt die Bereiche + bis +++ - absolute Hemmung (a. H.)
(§2) In den Tabellen 5, 6 und 7 bedeuten ⊕⊕ ungehemmtes Wachstum und ⊕ vermindertes Wachstum.

[2] = test system: Escherichia coli; assay: Agar incorporation test, bacteriostatic activity; assay type: cell-based; set-up: key: ⊕⊕: ungehemmtes Wachstum; ⊕: vermindertes Wachstum; -: absolute Hemmung (a. H.); conditions: 24 h bei 36 °C
Source text: as §1, §2

[3] = test system: Proteus mirabilis; assay: Agar incorporation test, bacteriostatic activity; assay type: cell-based; set-up: key: ⊕⊕: ungehemmtes Wachstum; ⊕: vermindertes Wachstum; -: absolute Hemmung (a. H.); conditions: 24 h bei 36 °C
Source text: as §1, §2

[4] = test system: Staphylococcus aureus; assay: Agar incorporation test, bacteriostatic activity; assay type: cell-based; set-up: key: ⊕⊕: ungehemmtes Wachstum; ⊕: vermindertes Wachstum; -: absolute Hemmung (a. H.); conditions: 24 h bei 36 °C
Source text: as §1, §2

[5] = test system: Pseudomonas aeruginosa; assay: Agar incorporation test, bacteriostatic activity; assay type: cell-based; set-up: key to Bakteriostatische Wirksamkeit (Wachstum): ⊕⊕: ungehemmtes Wachstum; ⊕: vermindertes Wachstum; -: absolute Hemmung (a. H.); conditions: for Bakteriostatische Wirksamkeit (Wachstum): 24 h bei 36 °C
Source text: as §1, §2

[6] = Cytotoxicity, cell count of monolayer culture after 24 h exposure; assay type: cell-based, human; conditions: human, fl amnion cells, 24 h, read-out: Median der Zellzahl
Description: (§3) Methodik: Die Zytotoxizität wird an der FL-Linie (menschliche Amnionzellen) geprüft. 2-3 Tage nach der Zelleinsaat werden die Zellen, nachdem sie als einschichtige Zellkultur (Monolayer) vorliegen, nach Medienwechsel für 24 h mit der Prüfsubstanz exponiert, danach abgelöst und die Zellzahl in % zur Kontrolle mit dem Zellzähler Universal 87001 (mölab, Hilden) ermittelt.

[7] = test system: FL-Linie (menschliche Amnionzellen); assay: as above; assay type: cell-based, human; conditions: Prüfkonzentration 0,005 %; 24 h; 1440 min
Description: as §3

[8] = Konzentration in Wasser 0,0015 %
[9] = Konzentration in Wasser 0,003 %
[10] = Konzentration in Wasser 0,006 %
[11] = Konzentration in Wasser 0,012 %
[12] = Konzentration in Wasser 0,025 %

## CCCCCCCCCCCCSC(=N)N [Dodecylthiouroniumchlorid]
[1]; Konzentration in Wasser 0,1 %
  Bakteriostatische Wirksamkeit (Wachstum): -
[1]; Konzentration in Wasser 0,2 %
  Bakteriostatische Wirksamkeit (Wachstum): -
[1]; Konzentration in Wasser 0,4 %
  Bakteriostatische Wirksamkeit (Wachstum): -
[1]; Konzentration in Wasser 0,05 %
  Bakteriostatische Wirksamkeit (Wachstum): -
[1]; Konzentration in Wasser 0,8 %
  Bakteriostatische Wirksamkeit (Wachstum): -
[1]; [8]
  Bakteriostatische Wirksamkeit (Wachstum): ⊕⊕
[1]; [9]
  Bakteriostatische Wirksamkeit (Wachstum): ⊕⊕
[1]; [10]
  Bakteriostatische Wirksamkeit (Wachstum): ⊕
[1]; [11]
  Bakteriostatische Wirksamkeit (Wachstum): -
[1]; [12]
  Bakteriostatische Wirksamkeit (Wachstum): -
[2]; Konzentration in Wasser 0,1 %
  Bakteriostatische Wirksamkeit (Wachstum): -
[2]; Konzentration in Wasser 0,2 %
  Bakteriostatische Wirksamkeit (Wachstum): -
[2]; Konzentration in Wasser 0,4 %
  Bakteriostatische Wirksamkeit (Wachstum): -
[2]; Konzentration in Wasser 0,05 %
  Bakteriostatische Wirksamkeit (Wachstum): -
[2]; Konzentration in Wasser 0,8 %
  Bakteriostatische Wirksamkeit (Wachstum): -
[2]; [8]
  Bakteriostatische Wirksamkeit (Wachstum): ⊕⊕
[2]; [9]
  Bakteriostatische Wirksamkeit (Wachstum): ⊕⊕
[2]; [10]
  Bakteriostatische Wirksamkeit (Wachstum): ⊕⊕
[2]; [11]
  Bakteriostatische Wirksamkeit (Wachstum): ⊕
[2]; [12]
  Bakteriostatische Wirksamkeit (Wachstum): -
[3]; Konzentration in Wasser 0,1 %
  Bakteriostatische Wirksamkeit (Wachstum): -
[3]; Konzentration in Wasser 0,2 %
  Bakteriostatische Wirksamkeit (Wachstum): -
[3]; Konzentration in Wasser 0,4 %
  Bakteriostatische Wirksamkeit (Wachstum): -
[3]; Konzentration in Wasser 0,05 %
  Bakteriostatische Wirksamkeit (Wachstum): -
[3]; Konzentration in Wasser 0,8 %
  Bakteriostatische Wirksamkeit (Wachstum): -
[3]; [8]
  Bakteriostatische Wirksamkeit (Wachstum): ⊕⊕
[3]; [9]
  Bakteriostatische Wirksamkeit (Wachstum): ⊕⊕
[3]; [10]
  Bakteriostatische Wirksamkeit (Wachstum): ⊕⊕
[3]; [11]
  Bakteriostatische Wirksamkeit (Wachstum): ⊕
[3]; [12]
  Bakteriostatische Wirksamkeit (Wachstum): ⊕
[4]; Konzentration in Wasser 0,1 %
  Bakteriostatische Wirksamkeit (Wachstum): -
[4]; Konzentration in Wasser 0,2 %
  Bakteriostatische Wirksamkeit (Wachstum): -
[4]; Konzentration in Wasser 0,4 %
  Bakteriostatische Wirksamkeit (Wachstum): -
[4]; Konzentration in Wasser 0,05 %
  Bakteriostatische Wirksamkeit (Wachstum): -
[4]; Konzentration in Wasser 0,8 %
  Bakteriostatische Wirksamkeit (Wachstum): -
[4]; [8]
  Bakteriostatische Wirksamkeit (Wachstum): ⊕⊕
[4]; [9]
  Bakteriostatische Wirksamkeit (Wachstum): ⊕⊕
[4]; [10]
  Bakteriostatische Wirksamkeit (Wachstum): -
[4]; [11]
  Bakteriostatische Wirksamkeit (Wachstum): -
[4]; [12]
  Bakteriostatische Wirksamkeit (Wachstum): -
[5]; Konzentration in Wasser 0,1 %
  Bakteriostatische Wirksamkeit (Wachstum): -
[5]; Konzentration in Wasser 0,2 %
  Bakteriostatische Wirksamkeit (Wachstum): -
[5]; Konzentration in Wasser 0,4 %
  Bakteriostatische Wirksamkeit (Wachstum): -
[5]; Konzentration in Wasser 0,05 %
  Bakteriostatische Wirksamkeit (Wachstum): ⊕
[5]; Konzentration in Wasser 0,8 %
  Bakteriostatische Wirksamkeit (Wachstum): -
[5]; [8]
  Bakteriostatische Wirksamkeit (Wachstum): ⊕⊕
[5]; [9]
  Bakteriostatische Wirksamkeit (Wachstum): ⊕⊕
[5]; [10]
  Bakteriostatische Wirksamkeit (Wachstum): ⊕⊕
[5]; [11]
  Bakteriostatische Wirksamkeit (Wachstum): ⊕⊕
[5]; [12]
  Bakteriostatische Wirksamkeit (Wachstum): ⊕⊕
[5]; single substance, resistentester Testkeim
  Konzentration, durch die Pseudomonas aeruginosa gehemmt wird (minimale Hemmkonzentration): 0,1%
[6]; Prüfkonzentration 0,0001 %
  viability at 24 h: 101%
[6]; Prüfkonzentration 0,005 %
  viability at 24 h: 70%
[7]
  Median der Zellzahl: 69,9 % der Kontrolle
